Source: patent publication US20250049928A1, “ANESTHETIC PRODRUGS AND DERIVATIVES THEREOF FOR PROLONGED SENSORY SELECTIVE NERVE BLOCKAGE” (The Board of Trustees of The University of Alabama, priority 2023, published 2025)
Values joined by “and” are separate entries in the source; they are usually repeats but may differ in a detail not shown here. Equal values may be shown once. “Also recorded” adds a separate entry of the source. Read-outs that look alike come from different tables or passages of the source.

Key:
sciatic nerve [1] = experiment: Rat sciatic nerve block: nociceptive axon blockade (hotplate thermal latency); format: in vivo, Sprague-Dawley rats
sciatic nerve [2] = experiment: Rat sciatic nerve block: motor axon blockade (weight-bearing test); format: in vivo, Sprague-Dawley rats
rats [3] = settings: rat, in vivo
Log P = settings: octanol/water
[4] = system: sciatic nerves and surrounding tissues; settings: rat, in vivo
[5] = system: Esterase (from porcine liver); settings: pig
rats [6] = settings: rat, in vivo; remark: listed apart in the source
GLUT1 = GLUT1 (Homo sapiens, UniProt P11166); settings: cited from earlier work
GLUT3 = GLUT3 (Homo sapiens, UniProt P11169); settings: read-out: Km for GLUT3; cited from earlier work
sciatic nerve [7] = settings: rat, in vivo
[8] = read-out: Km (transporter protein affinity for sugar molecules)

Chain of GLUT1 (P11166 whole entry, species assumed): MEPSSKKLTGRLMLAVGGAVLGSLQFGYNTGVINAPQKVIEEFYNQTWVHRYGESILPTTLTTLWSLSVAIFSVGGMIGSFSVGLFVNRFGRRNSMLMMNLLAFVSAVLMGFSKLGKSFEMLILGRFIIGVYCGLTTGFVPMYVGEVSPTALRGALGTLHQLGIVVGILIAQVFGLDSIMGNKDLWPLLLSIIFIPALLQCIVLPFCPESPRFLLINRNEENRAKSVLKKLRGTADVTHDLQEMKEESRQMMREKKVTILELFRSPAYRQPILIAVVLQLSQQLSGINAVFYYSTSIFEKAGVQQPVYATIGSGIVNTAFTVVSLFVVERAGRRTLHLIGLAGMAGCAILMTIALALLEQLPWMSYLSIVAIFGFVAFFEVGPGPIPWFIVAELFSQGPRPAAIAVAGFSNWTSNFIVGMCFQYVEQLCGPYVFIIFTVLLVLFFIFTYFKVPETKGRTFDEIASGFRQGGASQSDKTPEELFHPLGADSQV
Chain of GLUT3 (P11169 whole entry, species assumed): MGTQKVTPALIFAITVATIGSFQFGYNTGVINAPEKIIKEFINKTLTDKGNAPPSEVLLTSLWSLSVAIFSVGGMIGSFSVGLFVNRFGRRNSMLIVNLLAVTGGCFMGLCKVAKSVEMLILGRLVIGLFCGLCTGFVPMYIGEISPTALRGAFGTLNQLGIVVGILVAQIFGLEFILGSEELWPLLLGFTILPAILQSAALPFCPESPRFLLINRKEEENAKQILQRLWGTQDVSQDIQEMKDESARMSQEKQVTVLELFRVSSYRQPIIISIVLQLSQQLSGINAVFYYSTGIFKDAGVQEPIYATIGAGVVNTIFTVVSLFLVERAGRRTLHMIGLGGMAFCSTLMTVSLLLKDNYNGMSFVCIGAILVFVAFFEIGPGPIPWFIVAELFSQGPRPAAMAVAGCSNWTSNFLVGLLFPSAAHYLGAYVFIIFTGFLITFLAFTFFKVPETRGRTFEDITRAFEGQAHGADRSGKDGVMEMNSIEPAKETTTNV

For `COc1cc(CNC(=O)CCCC/C=C/C(C)C)ccc1O` [capsaicin], the “successful analgesic block (thermal paw withdrawal latencies >7 seconds)” value (from here on “successful analgesic block”) (sciatic nerve [1]; injection doses above 3.28 μmol) was 100%, the “successful analgesic block” value (sciatic nerve [1]; injection doses above 1 mg, 0.3 mL at left sciatic nerve) was 100% and the “duration of nociceptive axon block” value (sciatic nerve [1]; injection of 6.56 μmol) was 4.0 ± 2.0 h. For the same compound, the “duration of nociceptive axon blockade” value (sciatic nerve [1]; single injection of 2 mg in 0.3 mL at sciatic nerve) was 4 ± 2 h, the “duration of nociceptive axon blockade” value (sciatic nerve [1]; single injection of 3 mg in 0.3 mL at sciatic nerve) was 30 ± 12 h and the “motor deficits in the injected hind limb” value (sciatic nerve [2]; 0.5-3 mg in 0.3 mL at sciatic nerve) was “did not produce any motor deficits”. The “motor deficits in the injected hind limb” value (sciatic nerve [2]; Example 4, doses in μmol, 0.3 mL PBS) was “did not produce any motor deficits”, the “rats that developed acute respiratory distress” value (rats [3]; male, Sprague-Dawley) was 75% and the “rats that developed contralateral nociceptive axon block” value (rats [3]; male, Sprague-Dawley) was 50%. For the same compound, the “rats that experienced a seizure” value (rats [3]; male, Sprague-Dawley) was 25%, the “rats with irreversible nociceptive axon blockade in the injected hind limb” value (rats [3]; male, Sprague-Dawley) was 25% and the “rats exhibiting at least one systemic adverse effect” value (rats [3]) was “all rats”. The logP (Log P) was 3.66.
For “galacturonic acid-capsaicin prodrug [GalA-CAP prodrug]”, the “change of nociceptive axon block duration with increasing glucose dose” value (sciatic nerve [1]; rat, in vivo) was “significantly reduced with increasing glucose dose”, the “duration of nociceptive axon blockade” value (sciatic nerve [1]; rat, in vivo) was 150.0 ± 76.8 h and 234 ± 37 h and 150 ± 76.84 h and the “successful analgesic block” value (sciatic nerve [1]; rat, in vivo) was 100%. For the same compound, the “time to restoration of full thermal stimulus sensitivity (return to baseline thermal latency)” value (sciatic nerve [1]; rat, in vivo) was 13 days, the “motor deficits in the injected hind limb” value (sciatic nerve [2]; rat, in vivo) was “did not produce any motor deficits” and the “capsaicin-related side effects (spontaneous pain behavior, contralateral block, irreversible block, seizure, acute respiratory distress)” value (rats [3]) was “did not cause any capsaicin-related side effects”. For the same compound, the “seizures observed (systemic toxicity)” value (rats [3]) was 2 out of 4, the “Myotoxicity Score (median; range 0-6)” value [4] was 0 and the “appearance of surrounding tissues at dissection” value [4] was “did not appear edematous or discolored”. For the same compound, the “myotoxicity score, median for all groups” value [4] was 0, the “unmyelinated C-fibers / axon diameter by TEM” value [4] was “not significantly increased” and the Half-lives [5] was under 10 min. For the same compound, the “frequency of licking within 5 minutes after injection” value (rats [6]) was 1±0 times and the “total duration of licking behavior” value (rats [6]) was 4.28 ± 5.81 s.
In the case of `O=C[C@H](O)[C@@H](O)[C@@H](O)[C@H](O)CO` [galactose], the Km (GLUT1; [8]) is given as 15 mM, the Km (GLUT1; read-out: Km for GLUT1) is given as 17 mM and the Km (GLUT3) is given as 8.5 mM.
In the case of `N[C@H]1C(O)O[C@H](CO)[C@@H](O)[C@@H]1O` (stereo partly shown) [glucosamine], the Km (GLUT1; [8]) is given as 2.5 mM.
In the case of “glucuronic acid-linked bupivacaine [GluA-Bup]”, the “mean duration of sensory block” value (sciatic nerve [1]; rat, in vivo) is reported as 13.0 ± 2.58 h, the “mean duration of sensory blockade” value (sciatic nerve [1]; rat, in vivo) is reported as 3.75 ± 0.50 h and the sensory block success (sciatic nerve [1]; rat, in vivo) is reported as 100%. For the same compound, the successful sensory blockade (sciatic nerve [1]; rat, in vivo) was 100%, the “duration of motor deficits / motor involvement” value (sciatic nerve [2]; rat, in vivo) was 1.625 ± 0.25 h and the motor deficits (sciatic nerve [2]; rat, in vivo) was “without any motor deficits”.
With `COc1cc(CNC(=O)CCCC/C=C/C(C)C)ccc1OC[C@H]1OC(O)[C@H](O)[C@@H](O)[C@H]1O` (stereo partly shown) [Gal-CAP prodrug, galactose-capsaicin prodrug] the “frequency of licking within 5 minutes after injection” value (rats [6]) was 1±1.41 times and the “total duration of licking behavior” value (rats [6]) was 4.55 ± 5.77 s.
For `CCCCN1CCCCC1C(=O)Nc1c(C)cccc1C` (stereo not shown) [bupivacaine, reference compound], the successful sensory blockade (sciatic nerve [1]; 8.65 mM in 0.3 mL PBS) was “failed to achieve a successful block”, the “mean duration of sensory block” value (sciatic nerve [1]; 17.3 mM in 0.3 mL PBS) was 1.75 ± 0.29 h and the sensory block success (sciatic nerve [1]; 17.3 mM in 0.3 mL PBS) was 100%. The “duration of motor deficits / motor involvement” value (sciatic nerve [2]; 17.3 mM in 0.3 mL PBS) was 1.375 ± 0.48 h.
For galactosamine-fluorescein [Gal-FL], the “mean fluorescent intensity in epineurium/perineurium and inside the nerve” value (sciatic nerve [7]) was “significantly higher”.
With “glycine-capsaicin prodrug [Gly-CAP prodrug]” the “duration of nociceptive axon blockade” value (sciatic nerve [1]; rat, in vivo) was 17.33 ± 11.55 h and the “successful nociceptive axon blockade” value (sciatic nerve [1]; rat, in vivo) was 100%.
For galactose-capsaicin prodrug, the “change of nociceptive axon block duration with increasing glucose dose” value (sciatic nerve [1]; rat, in vivo) was “decrease in nociceptive axon block duration; also recorded: significant decrease”, the “duration of nociceptive axon blockade” value (sciatic nerve [1]; rat, in vivo) was 150.0 ± 76.8 h and 234 ± 36 h and the “successful analgesic block” value (sciatic nerve [1]; rat, in vivo) was 100%. The “motor deficits in the injected hind limb” value (sciatic nerve [2]; rat, in vivo) was “did not produce any motor deficits”, the “capsaicin-related side effects (spontaneous pain behavior, contralateral block, irreversible block, seizure, acute respiratory distress)” value (rats [3]) was “did not cause any capsaicin-related side effects” and the “appearance of surrounding tissues at dissection” value [4] was “did not appear edematous or discolored”. The “microscopic examination for myotoxicity or inflammation” value [4] was “did not reveal significant myotoxicity or inflammation” and the “toluidine blue stained sciatic nerve sections” value [4] was “normal in appearance without evidence of demyelination or axonal degeneration”.
For `O=C1O[C@H]([C@@H](O)CO)C(=O)C1=O` [DHA, dehydroascorbic acid], the Km (GLUT1; [8]) is given as 1.1 mM.
